Data published in patent US20080176932A1, “Pharmaceutical Compositions Containing Baicalein And Baicalin With Synergistic Effect In Tumor Treatment” (priority 2005, published 2008).
Where two headings read alike, the source gives them in different places.

Columns and labels:
[1] = test system: Human prostate cancer cell line PC3; test: MTT growth inhibition, baicalein and scutellarin single or combination; type: cell-based
Experimental: (§1) Cells were seeded onto 96-well plate at 5×10^3 cells/well, and grown in culture medium containing 10% fetal bovine serum (FBS). […] The viable cell growth was determined by MTT assay after 72-h continuous exposure.
(§2) A CI below 1 is an indication of synergy, while a CI equal to 1 represents addition, and a CI above 1 indicates antagonism.

[2] = test system: Human esophagus cancer cell line TE2; test: as above; type: cell-based
Experimental: as §1, §2

[3] = test system: Human breast cancer cell line MCF-7; test: as above; type: cell-based
Experimental: as §1, §2

[4] = test system: Human colon cancer cell line HCT116; test: as above; type: cell-based
[5] = test system: Murine melanoma cell line B 16; test: Solid tumor transplant model, baicalein and scutellarin; type: in vivo, C57BL/6 female mice; conditions: for Final Tumor WT. (g) Mean ± SD / Tumor Growth Inhibition %: day 15
Experimental: C57BL/6 female mice (weight approximately 20 g) were used in this study. Murine melanoma cell line B 16 cells, 2×10^6 tumor cells were implanted s.c. into the armpit of each mice after two passenges in vitro cultured. On the next day after implantation, mice were randomly grouped at 10 per group and received 0.1ml/10 g weight of the drugs. […] The number of mice of each group was 10. Mice were weighed before and post the treatment. Animals were killed on day 15, and the tumors were removed and weighted.

[6] = test system: human liver cancer cell line HepG2; test: MTT growth inhibition, baicalein and scutellarin single or combination; type: cell-based
[7] = test system: Human leukemia cell line HL60; test: as above; type: cell-based
L1210 cells [8] = type: in vivo; conditions: day 1-10; for ILS(%) increase of life span: L1210 mice
Experimental: (§3) L1210 cells on the growth phase were injected at 1×10^5 cells via I.P. into BDF1 female mice (weight approximately 20 g). The next day of implantation, mice were grouped, and received an injection of 0.1 ml/10 g weight of the drug. […] The number of mice of each group was 10. Mice were weighed before and after the treatment. Survival time of each mouse was recorded. The results of changes in increasing of life span of mice were used in assessment of response. The increase of life span was determined as; increase of life span rate=(median survival time of treated animals/median survival time of control animals−1)×100%, the data were analyzed by t-test.

[9] = test system: Human hung cancer cell line A549; test: MTT growth inhibition, baicalein and scutellarin single or combination; type: cell-based
[10] = test system: Human gastric cancer cell line MKN28; test: as above; type: cell-based
[11] = test system: Murine melanoma cell line B 16; test: Solid tumor transplant model, baicalein and baicalin; type: in vivo
Experimental: C57BL/6 female mice (weight approximately 20 g) were used in this study. Murine melanoma cell line B 16 cells, 2×10^6 tumor cells were implanted s.c. into the armpit of each mice after two passenges in vitro cultured. On the next day after implantation, mice were randomly grouped at 10 per group and received 0.1 ml/10 g weight of the drugs. […] The number of mice of each group was 10. Mice were weighed before and post the treatment. Animals were killed on day 15, and the tumors were removed and weighted.

L1210 cells [12] = type: in vivo; conditions: 5-FU 10 mg/kg s.c., day 1-10
Experimental: as §3

[13] = B16 mice, Sc 25 mg/kg i.p., day 1-10
[14] = B16 mice, Sc 50 mg/kg i.p., day 1-10
[15] = B16 mice, Sc 100 mg/kg i.p., day 1-10
[16] = B16 mice, Sc 200 mg/kg i.p., day 1-10
[17] = B16 mice, day 15, 5-FU 10 mg/kg s.c., day 1-10
[18] = B16 mice, 5-FU 10 mg/kg s.c., day 1-10
[19] = female, C57BL/6, mouse, in vivo, 15 days

SMILES: O=C(O)[C@H]1O[C@@H](Oc2cc3oc(-c4ccc(O)cc4)cc(=O)c3c(O)c2O)[C@H](O)[C@@H](O)[C@@H]1O [Sc, scutellarin]
- Inhibition of cell growth (%) ([1]; single dose 2.5 μm): 2 ± 5%
- Inhibition of cell growth (%) ([1]; single dose 5 μm): 18 ± 3%
- Inhibition of cell growth (%) ([1]; single dose 10 μm): 39 ± 7%
- Inhibition of cell growth (%) ([1]; single dose 20 μm): 72 ± 9%
- Inhibition of cell growth (%) ([1]; single dose 40 μm): 91.8 ± 5%
- Inhibition of cell growth (%) ([2]; single dose 2.5 μm): 4.7 ± 2.2%
- Inhibition of cell growth (%) ([2]; single dose 5 μm): 12.97 ± 3.1%
- Inhibition of cell growth (%) ([2]; single dose 10 μm): 27.1 ± 2.7%
- Inhibition of cell growth (%) ([2]; single dose 20 μm): 66 ± 2.9%
- Inhibition of cell growth (%) ([2]; single dose 40 μm): 84.62 ± 2.5%
- Inhibition of cell growth (%) ([3]; single dose 2.5 μm): 5 ± 2.5%
- Inhibition of cell growth (%) ([3]; single dose 5 μm): 20.71 ± 3.2%
- Inhibition of cell growth (%) ([3]; single dose 10 μm): 71 ± 2.2%
- Inhibition of cell growth (%) ([3]; single dose 20 μm): 87.5 ± 2.5%
- Inhibition of cell growth (%) ([3]; single dose 40 μm): 95.57 ± 2.2%
- Inhibition of cell growth (%) ([4]; single dose 2.5 μm): 10.05 ± 2.5%
- Inhibition of cell growth (%) ([4]; single dose 5 μm): 15.1 ± 3%
- Inhibition of cell growth (%) ([4]; single dose 10 μm): 49 ± 2.2%
- Inhibition of cell growth (%) ([4]; single dose 20 μm): 83.7 ± 2.2%
- Inhibition of cell growth (%) ([4]; single dose 40 μm): 95 ± 2.8%
- Final Tumor WT. (g) Mean ± SD [5, 13]: 1.81 ± 0.11 g
- Tumor Growth Inhibition % [5, 13]: 17%
- Final Tumor WT. (g) Mean ± SD [5, 14]: 1.72 ± 0.08 g
- Tumor Growth Inhibition % [5, 14]: 21.1%
- Final Tumor WT. (g) Mean ± SD [5, 15]: 1.48 ± 0.12 g
- Tumor Growth Inhibition % [5, 15]: 32.1%
- Final Tumor WT. (g) Mean ± SD [5, 16]: 1.22 ± 0.09 g
- Tumor Growth Inhibition % [5, 16]: 44%
- Number of mice through 15 days/total number [5, 13]: 10/10
- Weight Change % [5, 13]: <5%
- Number of mice through 15 days/total number [5, 14]: 10/10
- Weight Change % [5, 14]: <5%
- Number of mice through 15 days/total number [5, 15]: 10/10
- Weight Change % [5, 15]: <5%
- Number of mice through 15 days/total number [5, 16]: 10/10
- Weight Change % [5, 16]: <5%
- Inhibition of cell growth (%) ([6]; single dose 2.5 μm): 5.2 ± 2.1%
- Inhibition of cell growth (%) ([6]; single dose 5 μm): 7.7 ± 2.3%
- Inhibition of cell growth (%) ([6]; single dose 10 μm): 43.35 ± 2.7%
- Inhibition of cell growth (%) ([6]; single dose 20 μm): 86.1 ± 2.9%
- Inhibition of cell growth (%) ([6]; single dose 40 μm): 88.45 ± 2.5%
- Inhibition of cell growth (%) ([7]; single dose 2.5 μm): 2.25 ± 2.7%
- Inhibition of cell growth (%) ([7]; single dose 5 μm): 8.64 ± 3.2%
- Inhibition of cell growth (%) ([7]; single dose 10 μm): 37 ± 2.2%
- Inhibition of cell growth (%) ([7]; single dose 20 μm): 64.2 ± 2.7%
- Inhibition of cell growth (%) ([7]; single dose 40 μm): 88.5 ± 2.5%
- ILS(%) increase of life span (L1210 cells [8]; Sc 25 mg/kg i.p.): 11.9%
- ILS(%) increase of life span (L1210 cells [8]; Sc 50 mg/kg i.p.): 26%
- ILS(%) increase of life span (L1210 cells [8]; Sc 100 mg/kg i.p.): 37%
- ILS(%) increase of life span (L1210 cells [8]; Sc 200 mg/kg i.p.): 51%
- Number of mice Through surviving 15 days/total number (L1210 cells [8]; Sc 25 mg/kg i.p.): 10/10
- Number of mice Through surviving 15 days/total number (L1210 cells [8]; Sc 50 mg/kg i.p.): 10/10
- Number of mice Through surviving 15 days/total number (L1210 cells [8]; Sc 100 mg/kg i.p.): 10/10
- Number of mice Through surviving 15 days/total number (L1210 cells [8]; Sc 200 mg/kg i.p.): 10/10
- Inhibition of cell growth (%) ([9]; single dose 2.5 μm): 1 ± 2.1%
- Inhibition of cell growth (%) ([9]; single dose 5 μm): 7.7 ± 3.3%
- Inhibition of cell growth (%) ([9]; single dose 10 μm): 32.33 ± 2.7%
- Inhibition of cell growth (%) ([9]; single dose 20 μm): 62.65 ± 2.5%
- Inhibition of cell growth (%) ([9]; single dose 40 μm): 91 ± 2.7%
- Inhibition of cell growth (%) ([10]; single dose 2.5 μm): 18.83 ± 2.2%
- Inhibition of cell growth (%) ([10]; single dose 5 μm): 21.23 ± 3.5%
- Inhibition of cell growth (%) ([10]; single dose 10 μm): 31.65 ± 2.8%
- Inhibition of cell growth (%) ([10]; single dose 20 μm): 35.34 ± 2.8%
- Inhibition of cell growth (%) ([10]; single dose 40 μm): 75.34 ± 2.7%

SMILES: O=c1[nH]cc(F)c(=O)[nH]1 [5-FU, 5-fluorouracil, reference compound]
- Final Tumor WT. (g) Mean ± SD [11, 17]: 1.35 ± 0.1 g
- Tumor Growth Inhibition % [11, 17]: 38%
- Weight Change % [11, 18]: <5%
- Number of mice Surviving through 15 days/total number [11, 19]: 10/10
- Final Tumor WT. (g) Mean ± SD [5, 18]: 1.35 ± 0.1 g
- Tumor Growth Inhibition % [5, 18]: 38%
- Number of mice through 15 days/total number [5, 19]: 10/10
- Number of mice Surviving through 15 days/total number (L1210 cells [12]): 10/10
- ILS(%) increase of life span (L1210 cells [12]; L1210 mice): 79%
- Number of mice Through surviving 15 days/total number (L1210 cells [8]; 5-FU 10 mg/kg s.c.): 10/10
- ILS(%) increase of life span (L1210 cells [8]; 5-FU 10 mg/kg s.c.): 79%
